{"source": "patent US20250326742A1", "about": "“THERAPEUTIC COMPOUNDS” (RUTGERS, THE STATE UNIVERSITY OF NEW JERSEY, priority 2024, published 2025)", "key": {"SARS-CoV-2 PLpro": {"biological_target": "SARS-CoV-2 PLpro (Severe acute respiratory syndrome coronavirus 2, UniProt P0DTD1)", "test": "biochemical", "conditions": "200 nM PLpro, 10 μM FRET substrate, 30 min preincubation at 30° C.", "procedure": "FRET-Based PL^pro Enzymatic Assay\nThe SARS-CoV-2 PL^pro enzymatic assays were carried out as follows: The assay was assembled in 96-well plates with 100 μl of 200 nM PL^Pro protein in PL^Pro reaction buffer [50 mM Hepes (pH 7.5), 0.01% Triton X-100, and 5 mM DTT]. Then, 1 μl of testing compound at various concentrations was added to each well and incubated at 30° C. for 30 minutes. The enzymatic reaction was initiated by adding 1 μl of 1 mM FRET substrate (the final substrate concentration is 10 μM). The reaction was monitored in a Cytation 5 image reader with filters for excitation at 360/40 nm and emission at 460/40 nm at 30° C. for 1 hour. The initial velocity of the enzymatic reaction with and without testing compounds was calculated by linear regression for the first 15 minutes of the kinetic progress curve. The ICso values were calculated by plotting the initial velocity against various concentrations of testing compounds with a dose-response function in Prism 8 software."}, "[1]": {"test": "Cytotoxicity assay in Vero E6 cells (neutral red uptake)", "format": "cell-based", "conditions": "African green monkey, 2 days at 37° C.", "procedure": "Cytotoxicity Assay in Vero E6 Cells\nBriefly, 80,000 cells/ml of the tested cell lines were dispensed into 96-well cell culture plates at 100 μl per well. Twenty-four hours later, the growth medium was removed and washed with 150 μl of PBS buffer. Two hundred microliters of fresh serum-free medium containing serial diluted compounds was added to each well. After incubating for 2 days at 37° C., the medium was removed and replaced with 100 μl of DMEM medium containing neutral red (40 μg/ml) and incubated for 2 to 4 hours at 37° C. The amount of neutral red taken up was determined by measuring the absorbance at 540 nm using a Multiskan FC Microplate Photometer (Thermo Fisher Scientific). The CC50 values were calculated from best-fit dose-response curves with variable slope in Prism 8."}}, "data": [{"molecule": "C#CCNC(=O)CCc1ccccc1C(=O)N[C@H](C)c1cc(-c2cnn(C)c2)cc(-c2ccn(CC)n2)c1", "note": "[Example 2, (R)-N-(1-(3-(1-Ethyl-1H-pyrazol-3-yl)-5-(1-methyl-1H-pyrazol-4-yl)phenyl)ethyl)-2-(3-oxo-3-(prop-2-yn-1-ylamino)propyl)benzamide]", "values": [{"measurement": "IC50", "setting": "SARS-CoV-2 PLpro", "value": "1 to 5", "unit": "µM"}, {"measurement": "CC50 at 2 days", "setting": "[1]", "value": 256, "unit": "µM"}]}, {"molecule": "CCn1ccc(-c2cc(-c3cnn(C)c3)cc([C@@H](C)NC(=O)c3ccccc3CCC(=O)NNC(=O)C(Cl)Cl)c2)n1", "note": "[Example 3, (R)-2-(3-(2-(2,2-Dichloroacetyl)hydrazineyl)-3-oxopropyl)-N-(1-(3-(1-ethyl-1H-pyrazol-3-yl)-5-(1-methyl-1H-pyrazol-4-yl)phenyl)ethyl)benzamide]", "values": [{"measurement": "IC50", "setting": "SARS-CoV-2 PLpro", "value": "1 to 5", "unit": "µM"}, {"measurement": "CC50 at 2 days", "setting": "[1]", "value": "> 500", "unit": "µM"}]}, {"molecule": "C=CC(=O)NNC(=O)CCc1ccccc1C(=O)N[C@H](C)c1cc(-c2cnn(C)c2)cc(-c2ccn(CC)n2)c1", "note": "[Example 4, (R)-2-(3-(2-Acryloylhydrazineyl)-3-oxopropyl)-N-(1-(3-(1-ethyl-1H-pyrazol-3-yl)-5-(1-methyl-1H-pyrazol-4-yl)phenyl)ethyl)benzamide]", "values": [{"measurement": "IC50", "setting": "SARS-CoV-2 PLpro", "value": "1 to 5", "unit": "µM"}, {"measurement": "CC50 at 2 days", "setting": "[1]", "value": "> 500", "unit": "µM"}]}, {"molecule": "CCn1ccc(-c2cc(-c3cnn(C)c3)cc([C@@H](C)NC(=O)c3ccccc3CCC(=O)NNC(=O)/C=C/CN(C)C)c2)n1", "note": "[Example 5, (R,E)-2-(3-(2-(4-(Dimethylamino)but-2-enoyl)hydrazineyl)-3-oxopropyl)-N-(1-(3-(1-ethyl-1H-pyrazol-3-yl)-5-(1-methyl-1H-pyrazol-4-yl)phenyl)ethyl)benzamide]", "values": [{"measurement": "IC50", "setting": "SARS-CoV-2 PLpro", "value": "> 5", "unit": "µM"}, {"measurement": "CC50 at 2 days", "setting": "[1]", "value": "> 500", "unit": "µM"}]}, {"molecule": "C=CS(=O)(=O)NNC(=O)CCc1ccccc1C(=O)N[C@H](C)c1cc(-c2cnn(C)c2)cc(-c2ccn(CC)n2)c1", "note": "[Example 6, (R)-N-(1-(3-(1-Ethyl-1H-pyrazol-3-yl)-5-(1-methyl-1H-pyrazol-4-yl)phenyl)ethyl)-2-(3-oxo-3-(2-(vinylsulfonyl)hydrazineyl)propyl)benzamide]", "values": [{"measurement": "IC50", "setting": "SARS-CoV-2 PLpro", "value": "< 1", "unit": "µM"}, {"measurement": "CC50 at 2 days", "setting": "[1]", "value": 31, "unit": "µM"}]}, {"molecule": "CCn1ccc(-c2cc(-c3cnn(C)c3)cc([C@@H](C)NC(=O)c3ccccc3CCC(=O)NNC(=O)/C=C/C(=O)OC(C)(C)C)c2)n1", "note": "[Example 7, tert-Butyl (R,E)-4-(2-(3-(2-((1-(3-(1-ethyl-1H-pyrazol-3-yl)-5-(1-methyl-1H-pyrazol-4-yl)phenyl)ethyl)carbamoyl)phenyl)propanoyl)hydrazineyl)-4-oxobut-2-enoate]", "values": [{"measurement": "IC50", "setting": "SARS-CoV-2 PLpro", "value": "< 1", "unit": "µM"}]}, {"molecule": "CCn1ccc(-c2cc(-c3cnn(C)c3)cc([C@@H](C)NC(=O)c3ccccc3CCC(=O)NNC(=O)/C=C/C(=O)N3CC(C)(C)C3)c2)n1", "note": "[Example 8, (R,E)-2-(3-(2-(4-(3,3-Dimethylazetidin-1-yl)-4-oxobut-2-enoyl)hydrazineyl)-3-oxopropyl)-N-(1-(3-(1-ethyl-1H-pyrazol-3-yl)-5-(1-methyl-1H-pyrazol-4-yl)phenyl)ethyl)benzamide]", "values": [{"measurement": "CC50 at 2 days", "setting": "[1]", "value": "> 250", "unit": "µM"}]}, {"molecule": "CCOC(=O)/C=C/C(=O)NNC(=O)CCc1ccccc1C(=O)N[C@H](C)c1cc(-c2cnn(C)c2)cc(-c2ccn(CC)n2)c1", "note": "[Example 9, Ethyl (R,E)-4-(2-(3-(2-((1-(3-(1-ethyl-1H-pyrazol-3-yl)-5-(1-methyl-1H-pyrazol-4-yl)phenyl)ethyl)carbamoyl)phenyl)propanoyl)hydrazineyl)-4-oxobut-2-enoate]", "values": [{"measurement": "IC50", "setting": "SARS-CoV-2 PLpro", "value": "< 1", "unit": "µM"}]}, {"molecule": "CCn1ccc(-c2cc(-c3cnn(C)c3)cc([C@@H](C)NC(=O)c3ccccc3CCC(=O)NNS(=O)(=O)CCl)c2)n1", "note": "[Example 10, (R)-2-(3-(2-((Chloromethyl)sulfonyl)hydrazineyl)-3-oxopropyl)-N-(1-(3-(1-ethyl-1H-pyrazol-3-yl)-5-(1-methyl-1H-pyrazol-4-yl)phenyl)ethyl)benzamide]", "values": [{"measurement": "IC50", "setting": "SARS-CoV-2 PLpro", "value": "> 5", "unit": "µM"}, {"measurement": "CC50 at 2 days", "setting": "[1]", "value": "> 250", "unit": "µM"}]}, {"molecule": "CCn1ccc(-c2cc(-c3cnn(C)c3)cc([C@@H](C)NC(=O)c3ccccc3CCC(=O)NNS(=O)(=O)C(Cl)Cl)c2)n1", "note": "[Example 11, (R)-2-(3-(2-((dichloromethyl)sulfonyl)hydrazineyl)-3-oxopropyl)-N-(1-(3-(1-Ethyl-1H-pyrazol-3-yl)-5-(1-methyl-1H-pyrazol-4-yl)phenyl)ethyl)benzamide]", "values": [{"measurement": "IC50", "setting": "SARS-CoV-2 PLpro", "value": "> 5", "unit": "µM"}, {"measurement": "CC50 at 2 days", "setting": "[1]", "value": "> 250", "unit": "µM"}]}, {"molecule": "CCn1ccc(-c2cc(-c3cnn(C)c3)cc([C@@H](C)NC(=O)c3ccccc3CCC(=O)NNC(=O)/C=C/C(=O)N(C)C)c2)n1", "note": "[Example 12, (R,E)-2-(3-(2-(4-(Dimethylamino)-4-oxobut-2-enoyl)hydrazineyl)-3-oxopropyl)-N-(1-(3-(1-ethyl-1H-pyrazol-3-yl)-5-(1-methyl-1H-pyrazol-4-yl)phenyl)ethyl)benzamide]", "values": [{"measurement": "IC50", "setting": "SARS-CoV-2 PLpro", "value": "< 1", "unit": "µM"}, {"measurement": "CC50 at 2 days", "setting": "[1]", "value": "> 500", "unit": "µM"}]}, {"molecule": "CCn1ccc(-c2cc(-c3cnn(C)c3)cc([C@@H](C)NC(=O)c3ccccc3CCC(=O)NNC(=O)/C=C/C(=O)NC3CC3)c2)n1", "note": "[Example 13, (R,E)-2-(3-(2-(4-(Cyclopropylamino)-4-oxobut-2-enoyl)hydrazineyl)-3-oxopropyl)-N-(1-(3-(1-ethyl-1H-pyrazol-3-yl)-5-(1-methyl-1H-pyrazol-4-yl)phenyl)ethyl)benzamide]", "values": [{"measurement": "IC50", "setting": "SARS-CoV-2 PLpro", "value": "< 1", "unit": "µM"}, {"measurement": "CC50 at 2 days", "setting": "[1]", "value": "> 250", "unit": "µM"}]}, {"molecule": "CCn1ccc(-c2cc(-c3cnn(C)c3)cc([C@@H](C)NC(=O)c3ccccc3CCC(=O)NNC(=O)/C=C/C(=O)NC3CC(F)(F)C3)c2)n1", "note": "[Example 14, (R,E)-2-(3-(2-(4-((3,3-Difluorocyclobutyl)amino)-4-oxobut-2-enoyl)hydrazineyl)-3-oxopropyl)-N-(1-(3-(1-ethyl-1H-pyrazol-3-yl)-5-(1-methyl-1H-pyrazol-4-yl)phenyl)ethyl)benzamide]", "values": [{"measurement": "IC50", "setting": "SARS-CoV-2 PLpro", "value": "< 1", "unit": "µM"}, {"measurement": "CC50 at 2 days", "setting": "[1]", "value": "> 250", "unit": "µM"}]}, {"molecule": "CCn1ccc(-c2cc(-c3cnn(C)c3)cc([C@@H](C)NC(=O)c3ccccc3CCC(=O)NNC(=O)CCl)c2)n1", "note": "[Example 15, (R)-2-(3-(2-(2-Chloroacetyl)hydrazineyl)-3-oxopropyl)-N-(1-(3-(1-ethyl-1H-pyrazol-3-yl)-5-(1-methyl-1H-pyrazol-4-yl)phenyl)ethyl)benzamide]", "values": [{"measurement": "IC50", "setting": "SARS-CoV-2 PLpro", "value": "< 1", "unit": "µM"}, {"measurement": "CC50 at 2 days", "setting": "[1]", "value": "> 250", "unit": "µM"}]}, {"molecule": "C=C(F)C(=O)NNC(=O)CCc1ccccc1C(=O)N[C@H](C)c1cc(-c2cnn(C)c2)cc(-c2ccn(CC)n2)c1", "note": "[Example 16, (R)-N-(1-(3-(1-Ethyl-1H-pyrazol-3-yl)-5-(1-methyl-1H-pyrazol-4-yl)phenyl)ethyl)-2-(3-(2-(2-fluoroacryloyl)hydrazineyl)-3-oxopropyl)benzamide]", "values": [{"measurement": "IC50", "setting": "SARS-CoV-2 PLpro", "value": "> 5", "unit": "µM"}, {"measurement": "CC50 at 2 days", "setting": "[1]", "value": "> 250", "unit": "µM"}]}, {"molecule": "C=C(Cl)C(=O)NNC(=O)CCc1ccccc1C(=O)N[C@H](C)c1cc(-c2cnn(C)c2)cc(-c2ccn(CC)n2)c1", "note": "[Example 17, (R)-2-(3-(2-(2-Chloroacryloyl)hydrazineyl)-3-oxopropyl)-N-(1-(3-(1-ethyl-1H-pyrazol-3-yl)-5-(1-methyl-1H-pyrazol-4-yl)phenyl)ethyl)]", "values": [{"measurement": "IC50", "setting": "SARS-CoV-2 PLpro", "value": "1 to 5", "unit": "µM"}, {"measurement": "CC50 at 2 days", "setting": "[1]", "value": 33, "unit": "µM"}]}, {"molecule": "CCn1ccc(-c2cc(-c3cnn(C)c3)cc([C@@H](C)NC(=O)c3ccccc3CCC(=O)NNC(=O)/C=C/C(=O)N3CC(C(F)(F)F)C3)c2)n1", "note": "[Example 18, (R,E)-N-(1-(3-(1-Ethyl-1H-pyrazol-3-yl)-5-(1-methyl-1H-pyrazol-4-yl)phenyl)ethyl)-2-(3-oxo-3-(2-(4-oxo-4-(3-(trifluoromethyl)azetidin-1-yl)but-2-enoyl)hydrazineyl)propyl)benzamide]", "values": [{"measurement": "IC50", "setting": "SARS-CoV-2 PLpro", "value": "< 1", "unit": "µM"}]}, {"molecule": "CCn1ccc(-c2cc(-c3cnn(C)c3)cc([C@@H](C)NC(=O)c3ccccc3CCC(=O)NNC(=O)/C=C/C(=O)NC34CC(C3)C4)c2)n1", "note": "[Example 20, (R,E)-2-(3-(2-(4-(Bicyclo[1.1.1]pentan-1-ylamino)-4-oxobut-2-enoyl)hydrazineyl)-3-oxopropyl)-N-(1-(3-(1-ethyl-1H-pyrazol-3-yl)-5-(1-methyl-1 H-pyrazol-4-yl)phenyl)ethyl)benzamide]", "values": [{"measurement": "IC50", "setting": "SARS-CoV-2 PLpro", "value": "< 1", "unit": "µM"}, {"measurement": "CC50 at 2 days", "setting": "[1]", "value": "> 250", "unit": "µM"}]}, {"molecule": "CCn1ccc(-c2cc(-c3cnn(C)c3)cc([C@@H](C)NC(=O)c3ccccc3CCC(=O)NNC(=O)/C=C/C(=O)N3CC(F)C3)c2)n1", "note": "[Example 21, (R,E)-N-(1-(3-(1-ethyl-1H-pyrazol-3-yl)-5-(1-methyl-1H-pyrazol-4-yl)phenyl)ethyl)-2-(3-(2-(4-(3-fluoroazetidin-1-yl)-4-oxobut-2-enoyl)hydrazineyl)-3-oxopropyl)benzamide]", "values": [{"measurement": "IC50", "setting": "SARS-CoV-2 PLpro", "value": "< 1", "unit": "µM"}, {"measurement": "CC50 at 2 days", "setting": "[1]", "value": "> 500", "unit": "µM"}]}, {"molecule": "CCn1ccc(-c2cc(-c3cnn(C)c3)cc([C@@H](C)NC(=O)c3ccccc3CCC(=O)NNC(=O)/C=C/C(=O)N3CCC3)c2)n1", "note": "[Example 22, (R,E)-2-(3-(2-(4-(azetidin-1-yl)-4-oxobut-2-enoyl) hydrazineyl)-3-oxopropyl)-N-(1-(3-(1-ethyl-1H-pyrazol-3-yl)-5-(1-methyl-1H-pyrazol-4-yl)phenyl)ethyl)benzamide]", "values": [{"measurement": "IC50", "setting": "SARS-CoV-2 PLpro", "value": "< 1", "unit": "µM"}, {"measurement": "CC50 at 2 days", "setting": "[1]", "value": "> 250", "unit": "µM"}]}]}
